Measured values: patent publication US10138247B2, “7-(morpholin-4-yl)pyrazole[1,5-A]pyrimidine derivatives as PI3 kinase inhibitors” (priority 2015, dated 2018)

Assays:
[1] = molecular target: T1, PI3Kα (Homo sapiens, UniProt P42336); experiment: PI3K kinases inhibition in vitro (ADP-Glo), PI3Kα; assay type: biochemical
T1 construct: purchased Carna Biosciences

[2] = molecular target: T2, PI3Kβ (Homo sapiens, UniProt P42338); experiment: PI3K kinases inhibition in vitro (ADP-Glo), PI3Kβ; assay type: biochemical; details: averaged; recombinant kinase, 30° C., 1 h, PIP2 50 μM; read-out: PI3Kβ IC50
T2 construct: purchased Merck Millipore
Description: (§1) Tested compounds were dissolved in 100% DMSO, and thus obtained solutions were serially diluted in 1× reaction buffer. Recombinant kinase was diluted in a reaction mixture comprising 5× reaction buffer, substrate (1 mM sodium diacetate 4,5-bisphosphate phosphatydylinositol (PIP2) solution in 40 mM Tris buffer), and water. To the wells in a 96-wells plate, 5 μl of compounds solutions and 15 μl of the kinase solution in the reaction mixture were added. To initiate interaction of tested chemical compounds with the enzyme, the plate was incubated for 10 minutes at suitable temperature in a plate thermostat with orbital shaking at 600 rpm. Negative control wells contained all above reagents except tested compound and kinase, and positive control wells contained all above reagents except tested compounds. Enzymatic reaction was initiated by adding 5 μl of 150 μM ATP solution, subsequently the plate was incubated for 1 hour at 25° C. or 30° C. (depending on PI3K isoform tested) in plate thermostat with orbital shaking of the plate contents at 600 rpm. Reaction conditions are presented below in Table 12.
(§2) Detection of ADP formed in the enzymatic reaction was then performed using ADP-Glo Kinase Assay (Promega). To the wells of a 96-well plate 25 μl of ADP-Glo Reagent were added, and the plate was incubated for 40 minutes at 25° C. in a plate thermostat with orbital shaking at 600 rpm. Then to the wells of 96-well plate 50 μl of Kinase Detection Reagent were added and the plate was incubated for 40 minutes at 25° C. in a plate thermostat with orbital shaking at 600 rpm. After incubation time, luminescence intensity in a well was measured by Victor Light luminometer (Perkin Elmer, Inc.).
(§3) IC50 values were determined on the basis of luminescence intensity measurements in wells containing tested compounds at different concentrations and in control wells. These values were calculated with Graph Pad 5.03 software by fitting the curve using non-linear regression. Each compound was tested at least in quadruplicates (4 wells) on two 96-well plates using at least 4 wells of each of the controls.

[3] = molecular target: T3, PI3Kγ (Homo sapiens, UniProt P48736); experiment: PI3K kinases inhibition in vitro (ADP-Glo), PI3Kγ; assay type: biochemical; details: averaged; recombinant kinase, 30° C., 1 h, PIP2 50 μM; read-out: PI3Kγ IC50
T3 construct: purchased Merck Millipore
Description: as §1, §2, §3

[4] = molecular target: T4, PI3Kδ (Homo sapiens, UniProt O00329); experiment: PI3K kinases inhibition in vitro (ADP-Glo), PI3Kδ; assay type: biochemical; details: averaged; recombinant kinase, 25° C., 1 h, PIP2 30 μM; read-out: PI3Kδ IC50
T4 construct: purchased Merck Millipore

[5] = Pharmacokinetics testing in vivo, oral, rats; details: rat, Wistar rats, oral 30 mg/kg, serum
Description: Tests were performed on about 12 weeks old Wistar rats, weight 250-300 g. Rats were given orally tested compounds at 30 mg/kg m.c. Blood samples were collected from animals for analysis in 6 time points—30 min, 1 h, 2 h, 4 h, 7 h, and 12 h from administration of the compound. Blood was collected to tubes with K2EDTA and centrifuged for 15 min, 2000×g, at room temperature to separate serum. Collected serum samples were maintained at −20° C. before analysis. Each of the compounds was tested on a group of 5 animals.
Serum concentrations of tested compounds were determined by spectrophotometry. For each of tested compounds, time to reach maximum serum concentration (Tmax), maximum concentration (Cmax), and area under the curve (AUC) were determined.

T2 sequence (P42338 whole entry): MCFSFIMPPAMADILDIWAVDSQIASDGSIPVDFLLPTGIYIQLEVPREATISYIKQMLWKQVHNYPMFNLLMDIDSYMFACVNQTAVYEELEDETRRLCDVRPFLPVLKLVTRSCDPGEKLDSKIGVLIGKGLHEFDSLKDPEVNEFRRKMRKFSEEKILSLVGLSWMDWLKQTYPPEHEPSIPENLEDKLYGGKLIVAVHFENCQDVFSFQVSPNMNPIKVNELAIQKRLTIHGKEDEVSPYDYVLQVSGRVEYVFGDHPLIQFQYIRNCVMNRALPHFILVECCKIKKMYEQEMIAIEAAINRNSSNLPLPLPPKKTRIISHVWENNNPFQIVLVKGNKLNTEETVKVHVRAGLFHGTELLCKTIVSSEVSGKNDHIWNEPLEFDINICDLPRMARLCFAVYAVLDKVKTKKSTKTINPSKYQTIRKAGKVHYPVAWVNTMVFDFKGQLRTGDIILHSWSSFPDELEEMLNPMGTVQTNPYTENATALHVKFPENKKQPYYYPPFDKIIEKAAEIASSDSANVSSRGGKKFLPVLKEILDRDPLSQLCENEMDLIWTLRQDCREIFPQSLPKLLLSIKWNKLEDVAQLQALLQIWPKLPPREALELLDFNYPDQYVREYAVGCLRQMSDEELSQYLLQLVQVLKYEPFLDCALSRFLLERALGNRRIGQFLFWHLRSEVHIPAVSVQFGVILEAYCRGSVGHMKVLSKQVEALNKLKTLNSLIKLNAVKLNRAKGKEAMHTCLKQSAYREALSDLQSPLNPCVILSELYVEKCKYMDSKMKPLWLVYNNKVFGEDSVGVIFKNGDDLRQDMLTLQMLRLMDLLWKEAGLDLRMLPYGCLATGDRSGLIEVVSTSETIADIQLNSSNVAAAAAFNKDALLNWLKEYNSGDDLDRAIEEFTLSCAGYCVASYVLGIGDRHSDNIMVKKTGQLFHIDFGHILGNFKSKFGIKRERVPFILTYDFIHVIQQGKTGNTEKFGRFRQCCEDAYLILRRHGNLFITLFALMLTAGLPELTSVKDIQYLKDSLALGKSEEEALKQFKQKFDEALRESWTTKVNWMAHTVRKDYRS
T2 sequence (P27986 whole entry, further chain): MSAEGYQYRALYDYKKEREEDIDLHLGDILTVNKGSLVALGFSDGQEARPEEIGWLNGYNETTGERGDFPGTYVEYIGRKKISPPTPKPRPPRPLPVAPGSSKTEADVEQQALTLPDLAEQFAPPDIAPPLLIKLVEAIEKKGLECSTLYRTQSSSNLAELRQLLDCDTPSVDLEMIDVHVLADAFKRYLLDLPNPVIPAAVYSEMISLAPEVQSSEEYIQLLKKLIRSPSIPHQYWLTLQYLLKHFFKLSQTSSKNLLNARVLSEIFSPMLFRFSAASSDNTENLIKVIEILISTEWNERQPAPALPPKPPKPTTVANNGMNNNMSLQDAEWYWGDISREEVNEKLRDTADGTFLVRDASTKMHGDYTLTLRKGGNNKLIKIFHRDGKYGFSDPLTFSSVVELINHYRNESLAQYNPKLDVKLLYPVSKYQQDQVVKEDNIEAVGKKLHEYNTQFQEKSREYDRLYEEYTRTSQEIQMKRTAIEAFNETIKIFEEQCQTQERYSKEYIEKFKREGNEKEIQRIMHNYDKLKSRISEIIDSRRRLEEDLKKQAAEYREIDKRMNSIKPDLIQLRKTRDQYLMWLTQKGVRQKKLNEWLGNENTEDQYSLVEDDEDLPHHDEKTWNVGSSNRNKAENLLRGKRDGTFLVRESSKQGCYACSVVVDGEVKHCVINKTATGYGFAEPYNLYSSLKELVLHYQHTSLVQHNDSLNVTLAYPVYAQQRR
T4 sequence (O00329 whole entry): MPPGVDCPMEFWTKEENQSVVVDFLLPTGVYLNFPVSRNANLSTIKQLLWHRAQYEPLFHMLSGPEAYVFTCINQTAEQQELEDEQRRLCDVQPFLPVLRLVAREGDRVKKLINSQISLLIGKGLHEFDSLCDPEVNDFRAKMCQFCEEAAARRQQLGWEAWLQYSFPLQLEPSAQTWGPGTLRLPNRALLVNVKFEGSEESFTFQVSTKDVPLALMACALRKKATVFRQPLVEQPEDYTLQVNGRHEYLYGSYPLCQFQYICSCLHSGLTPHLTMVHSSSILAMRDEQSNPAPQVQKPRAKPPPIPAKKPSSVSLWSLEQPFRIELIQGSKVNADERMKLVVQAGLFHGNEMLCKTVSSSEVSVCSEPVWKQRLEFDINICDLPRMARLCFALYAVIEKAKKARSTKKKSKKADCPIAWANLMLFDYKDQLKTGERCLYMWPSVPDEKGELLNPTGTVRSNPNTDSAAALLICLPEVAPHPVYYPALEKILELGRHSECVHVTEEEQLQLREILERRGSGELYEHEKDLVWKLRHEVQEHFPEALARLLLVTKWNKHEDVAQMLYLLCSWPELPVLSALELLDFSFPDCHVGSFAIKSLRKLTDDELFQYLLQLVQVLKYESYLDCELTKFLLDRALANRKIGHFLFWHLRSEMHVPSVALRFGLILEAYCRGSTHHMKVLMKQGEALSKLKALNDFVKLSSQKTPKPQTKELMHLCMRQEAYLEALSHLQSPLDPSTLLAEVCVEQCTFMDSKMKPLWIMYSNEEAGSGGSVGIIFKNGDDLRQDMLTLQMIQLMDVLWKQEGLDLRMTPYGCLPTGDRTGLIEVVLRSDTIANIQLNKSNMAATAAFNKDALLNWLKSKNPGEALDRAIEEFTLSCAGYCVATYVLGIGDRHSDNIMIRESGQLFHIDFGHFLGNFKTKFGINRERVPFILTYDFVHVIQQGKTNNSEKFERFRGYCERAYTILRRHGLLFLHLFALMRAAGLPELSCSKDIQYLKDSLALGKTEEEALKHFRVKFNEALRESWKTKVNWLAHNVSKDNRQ
T4 sequence (P27986 whole entry, further chain): as the sequence (P27986 whole entry, further chain) above
T1 sequence (P42336 whole entry): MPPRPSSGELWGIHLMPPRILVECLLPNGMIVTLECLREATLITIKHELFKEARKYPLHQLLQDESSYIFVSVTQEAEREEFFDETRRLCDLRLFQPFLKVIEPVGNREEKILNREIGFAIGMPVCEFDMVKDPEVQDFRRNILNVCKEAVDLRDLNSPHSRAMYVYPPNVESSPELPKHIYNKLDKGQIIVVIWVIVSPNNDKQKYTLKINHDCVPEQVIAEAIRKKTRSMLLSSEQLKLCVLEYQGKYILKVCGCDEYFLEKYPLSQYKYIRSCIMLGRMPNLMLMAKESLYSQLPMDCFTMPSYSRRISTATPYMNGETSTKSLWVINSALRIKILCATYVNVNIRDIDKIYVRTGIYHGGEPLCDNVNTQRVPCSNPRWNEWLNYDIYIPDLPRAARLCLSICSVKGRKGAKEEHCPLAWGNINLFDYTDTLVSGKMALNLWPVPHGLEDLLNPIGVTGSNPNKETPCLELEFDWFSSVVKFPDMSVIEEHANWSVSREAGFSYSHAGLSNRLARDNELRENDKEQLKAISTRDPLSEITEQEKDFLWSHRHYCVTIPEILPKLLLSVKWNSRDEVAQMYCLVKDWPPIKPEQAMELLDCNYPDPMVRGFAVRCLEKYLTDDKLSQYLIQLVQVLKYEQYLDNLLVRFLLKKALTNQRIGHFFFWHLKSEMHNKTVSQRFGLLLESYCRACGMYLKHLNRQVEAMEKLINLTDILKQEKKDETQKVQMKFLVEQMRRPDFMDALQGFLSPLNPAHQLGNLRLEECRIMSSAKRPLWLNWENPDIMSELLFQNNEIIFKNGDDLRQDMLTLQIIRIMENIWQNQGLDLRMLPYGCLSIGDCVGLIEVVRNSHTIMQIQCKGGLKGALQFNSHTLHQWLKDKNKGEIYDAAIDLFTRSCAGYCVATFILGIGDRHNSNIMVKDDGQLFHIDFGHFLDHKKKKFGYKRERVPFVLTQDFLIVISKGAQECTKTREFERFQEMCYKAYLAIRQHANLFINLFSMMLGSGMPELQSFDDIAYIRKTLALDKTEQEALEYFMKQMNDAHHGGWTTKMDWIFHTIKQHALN
T1 sequence (P27986 whole entry partner): as the sequence (P27986 whole entry, further chain) above
T3 sequence (P48736 whole entry): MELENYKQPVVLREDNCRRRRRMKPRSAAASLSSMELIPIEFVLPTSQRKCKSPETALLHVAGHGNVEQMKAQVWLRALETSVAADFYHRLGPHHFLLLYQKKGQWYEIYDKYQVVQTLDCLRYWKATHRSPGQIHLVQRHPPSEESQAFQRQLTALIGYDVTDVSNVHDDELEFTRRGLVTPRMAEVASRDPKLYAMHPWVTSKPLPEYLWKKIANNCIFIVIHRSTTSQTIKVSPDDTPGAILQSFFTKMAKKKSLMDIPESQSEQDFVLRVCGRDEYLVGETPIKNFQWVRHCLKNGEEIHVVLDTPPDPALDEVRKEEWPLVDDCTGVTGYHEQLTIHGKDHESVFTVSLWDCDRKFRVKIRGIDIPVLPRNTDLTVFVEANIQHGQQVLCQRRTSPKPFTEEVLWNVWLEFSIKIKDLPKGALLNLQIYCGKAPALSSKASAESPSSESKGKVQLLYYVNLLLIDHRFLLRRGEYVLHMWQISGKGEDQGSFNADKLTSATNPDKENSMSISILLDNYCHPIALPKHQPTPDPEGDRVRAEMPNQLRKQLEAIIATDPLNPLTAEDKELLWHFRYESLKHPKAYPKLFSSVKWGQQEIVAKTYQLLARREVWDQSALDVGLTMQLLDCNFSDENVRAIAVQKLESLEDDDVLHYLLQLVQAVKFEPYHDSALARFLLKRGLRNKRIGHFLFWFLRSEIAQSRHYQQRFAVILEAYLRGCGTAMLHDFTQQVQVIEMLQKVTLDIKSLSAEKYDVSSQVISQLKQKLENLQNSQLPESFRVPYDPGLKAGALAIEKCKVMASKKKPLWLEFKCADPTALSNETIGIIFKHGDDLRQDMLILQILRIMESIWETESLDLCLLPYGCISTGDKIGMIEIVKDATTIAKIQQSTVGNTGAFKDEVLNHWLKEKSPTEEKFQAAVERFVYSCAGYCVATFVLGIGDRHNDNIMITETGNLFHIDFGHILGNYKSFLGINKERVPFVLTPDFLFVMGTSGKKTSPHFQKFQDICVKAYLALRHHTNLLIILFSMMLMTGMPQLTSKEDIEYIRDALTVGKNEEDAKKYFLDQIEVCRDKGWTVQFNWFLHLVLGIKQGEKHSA

For `CC(C)(C)N1CCN(Cc2cc3nc(-n4c(C(F)F)nc5ccccc54)cc(N4CCOCC4)n3n2)CC1` [Example 50, 5-(2-(difluoromethyl)benzimidazol-1-yl)-2-((4-tert-butylpiperazin-1-yl)methyl)-7-(morpholin-4-yl)-pyrazolo[1,5-a]pyrimidine], which IC50 [1] is on record?
Its IC50 is 0.1 to 1 µM.

What about the IC50 [2] of the same compound?
The IC50 was > 1 µM.

And the IC50 [3]?
Its IC50 is > 1 µM.

What about the IC50 [4] of the same compound?
Its IC50 is < 0.1 µM.

What about the AUC [5] of the same compound?
The AUC was 5.03 µg·h/mL.

What about the Cmax [5] of the same compound?
Its Cmax is 0.9 µg/mL.

What about the Tmax [5] of the same compound?
The Tmax was 2 h.
